# From patent US11781118B2, “Preparation of L-amino acid deaminase mutant and application thereof” (Jiangnan University, priority 2020, dated 2023)
# B1: PmirLAAD^S98A/T105A/S106A (protein)
# chain: MNISRRKLLLGVGAAGVLAGGAALVPMVRRDGKFVEAKSRASFVEGTQGALPKEADVVIIGAGIQGIMTAINLAERGMSVTILEKGQIAGEQSGRAYAQIISYQAAPEIFPLHHYGKILWRGMNEKIGADTSYRTQGRVEALADEKALDKAQAWIKTAKEAAGFDTPLNTRIIKGEELSNRLVGAQTPWTVAAFEEDSGSVDPETGTPALARYAKQIGVKIYTNCAVRGIETAGGKISDVVSEKGAIKTSQVVLAGGIWSRLFMGNMGIDIPTLNVYLSQQRVSGVPGAPRGNVHLPNGIHFREQADGTYAVAPRIFTSSIVKDSFLLGPKFMHLLGGGELPLEFSIGEDLFNSFKMPTSWNLDEKTPFEQFRVATATQNTQHLDAVFQRMKTEFPVFEKSEVVERWGAVVSPTFDELPIISEVKEYPGLVINTATVWGMTEGPAAGEVTADIVMGKKPVIDPTPFSLDRFKK
# B2: PmirLAAD^T105A/S106A/L341A (protein)
# chain: MNISRRKLLLGVGAAGVLAGGAALVPMVRRDGKFVEAKSRASFVEGTQGALPKEADVVIIGAGIQGIMTAINLAERGMSVTILEKGQIAGEQSGRAYSQIISYQAAPEIFPLHHYGKILWRGMNEKIGADTSYRTQGRVEALADEKALDKAQAWIKTAKEAAGFDTPLNTRIIKGEELSNRLVGAQTPWTVAAFEEDSGSVDPETGTPALARYAKQIGVKIYTNCAVRGIETAGGKISDVVSEKGAIKTSQVVLAGGIWSRLFMGNMGIDIPTLNVYLSQQRVSGVPGAPRGNVHLPNGIHFREQADGTYAVAPRIFTSSIVKDSFLLGPKFMHLLGGGEAPLEFSIGEDLFNSFKMPTSWNLDEKTPFEQFRVATATQNTQHLDAVFQRMKTEFPVFEKSEVVERWGAVVSPTFDELPIISEVKEYPGLVINTATVWGMTEGPAAGEVTADIVMGKKPVIDPTPFSLDRFKK
# B3: PmirLAAD^S98A/S106A/L341A (protein)
# chain: MNISRRKLLLGVGAAGVLAGGAALVPMVRRDGKFVEAKSRASFVEGTQGALPKEADVVIIGAGIQGIMTAINLAERGMSVTILEKGQIAGEQSGRAYAQIISYQTAPEIFPLHHYGKILWRGMNEKIGADTSYRTQGRVEALADEKALDKAQAWIKTAKEAAGFDTPLNTRIIKGEELSNRLVGAQTPWTVAAFEEDSGSVDPETGTPALARYAKQIGVKIYTNCAVRGIETAGGKISDVVSEKGAIKTSQVVLAGGIWSRLFMGNMGIDIPTLNVYLSQQRVSGVPGAPRGNVHLPNGIHFREQADGTYAVAPRIFTSSIVKDSFLLGPKFMHLLGGGEAPLEFSIGEDLFNSFKMPTSWNLDEKTPFEQFRVATATQNTQHLDAVFQRMKTEFPVFEKSEVVERWGAVVSPTFDELPIISEVKEYPGLVINTATVWGMTEGPAAGEVTADIVMGKKPVIDPTPFSLDRFKK
# B4: PmirLAAD^S98A/T105A/L341A (protein)
# chain: MNISRRKLLLGVGAAGVLAGGAALVPMVRRDGKFVEAKSRASFVEGTQGALPKEADVVIIGAGIQGIMTAINLAERGMSVTILEKGQIAGEQSGRAYAQIISYQASPEIFPLHHYGKILWRGMNEKIGADTSYRTQGRVEALADEKALDKAQAWIKTAKEAAGFDTPLNTRIIKGEELSNRLVGAQTPWTVAAFEEDSGSVDPETGTPALARYAKQIGVKIYTNCAVRGIETAGGKISDVVSEKGAIKTSQVVLAGGIWSRLFMGNMGIDIPTLNVYLSQQRVSGVPGAPRGNVHLPNGIHFREQADGTYAVAPRIFTSSIVKDSFLLGPKFMHLLGGGEAPLEFSIGEDLFNSFKMPTSWNLDEKTPFEQFRVATATQNTQHLDAVFQRMKTEFPVFEKSEVVERWGAVVSPTFDELPIISEVKEYPGLVINTATVWGMTEGPAAGEVTADIVMGKKPVIDPTPFSLDRFKK
# Key:
# [1] = target: Proteus mirabilis L-amino acid deaminase (PmirLAAD) mutant M4, S98A/T105A/S106A/L341A, SEQ ID NO: 15 (Proteus mirabilis, UniProt Q51890, L341A/S106A/S98A/T105A); experiment: Kinetic parameters with L-valine as substrate, mutant M4; format: biochemical; settings: M4 compared with parent enzyme, "increased by", 25° C.
# Procedure: (§1) In order to evaluate the mutants, kinetic parameters of the mutant parent PmirLAAD^WT and the mutants PmirLAAD^M1, PmirLAAD^M2, PmirLAAD^M3 and PmirLAAD^M4 at 25° C. were determined in the disclosure.
# (§2) kcat/Km was calculated based on the initial rate of α-ketoisovaleric acid produced from hydrolyzed L-valine substrates with different concentrations determined at 25° C. Product inhibition of the parent enzyme and the mutants was determined by a product inhibition constant determination experiment in the transformation process. A PmirLAAD^WT parent enzyme strain and mutant strains were respectively added to a reaction solution with the final concentration of wet cells of 10 g/L. 60 mM L-valine was used as the substrate, 10-100 mM α-ketoisovaleric acid was added to the transformation system, the initial reaction rate V0 was determined after about 30 min of reaction, the maximum reaction rate Vmax was determined after about 2 h of reaction, and the product inhibition constant KPI was calculated according to the following formula: […]
# CC(C)[C@H](N)C(=O)O = experiment: Kinetic parameters with L-valine as substrate, parent enzyme PmirLAAD WT; format: biochemical, Proteus mirabilis; settings: other: L-valine substrate, 25° C., initial rate of α-ketoisovaleric acid
# Procedure: as §1, §2
# [2] = test system: Proteus mirabilis L-amino acid deaminase (PmirLAAD) mutant M1, S98A, SEQ ID NO: 3; experiment: Product inhibition constant determination, mutant M1; format: biochemical; settings: M1 relative to WT
# Procedure: as §1, §2
# (§3) V0: initial reaction rate, Vmax: maximum reaction rate, Km: Michaelis constant, [S]: substrate concentration, [P]: product concentration, KPI: product inhibition constant.
# [3] = target: Proteus mirabilis L-amino acid deaminase (PmirLAAD), wild-type parent, SEQ ID NO: 1 (Proteus mirabilis, UniProt Q51890); experiment: Product inhibition constant determination, parent enzyme PmirLAAD WT; format: biochemical; settings: relative to WT
# Procedure: as §1, §2, §3
# [4] = test system: Proteus mirabilis L-amino acid deaminase (PmirLAAD) mutant M3, S98A/T105A/S106A, SEQ ID NO: 13; experiment: Product inhibition constant determination, mutant M3; format: biochemical; settings: M3 relative to WT
# Procedure: as §1, §2, §3
# [5] = target: Proteus mirabilis L-amino acid deaminase (PmirLAAD) mutant M2, S98A/T105A, SEQ ID NO: 11 (Proteus mirabilis, UniProt Q51890, S98A/T105A); experiment: Product inhibition constant determination, mutant M2; format: biochemical; settings: M2 relative to WT
# Procedure: as §1, §2, §3
# [6] = test system: Proteus mirabilis L-amino acid deaminase (PmirLAAD) mutant M4, S98A/T105A/S106A/L341A, SEQ ID NO: 15; experiment: Product inhibition constant determination, mutant M4; format: biochemical
# Procedure: as §1, §2, §3
# [7] = Shake flask screening of mutants: whole-cell transformation of L-valine, α-ketoisovaleric acid determined by HPLC; format: cell-based, E. coli BL21; settings: transformation temperature 25° C., pH 8.0, 24 h
# Procedure: Preparation of sample for determining α-ketoisovaleric acid content by HPLC: 1 mL of a transformed transformation solution is centrifuged at 12000 rpm for 5 min, the supernatant is diluted and filtered through a 0.45 μm filtration membrane, and the filtrate is for liquid chromatography.
# Determination of α-ketoisovaleric acid content by HPLC: a waters high performance liquid chromatograph (equipped with a UV-visible detector) and a Bio-Rad Aminex HPX-87H (300×7.8 mm, 9 μm) chromatographic column are used, and the mobile phase is dilute sulfuric acid with the concentration of 2.5 mmol/L. The mobile phase is filtered through a 0.22 μm filtration membrane; the filtrate is subjected to ultrasonic degassing; and detection is performed at the flow rate of 0.6 mL/min, the column temperature of 35° C. and the ultraviolet detection wavelength of 210 nm.
# (2) Shake flask screening of single mutants: The obtained 4 mutant strains and a strain containing wild-type L-amino acid deaminase were respectively inoculated into an LB seed medium, and cultured at 200 rpm at 37° C. for about 10 h. The products were respectively inoculated into a shake flask fermentation medium with the inoculum size of 5% of the medium by volume, and cultured at 200 rpm at 37° C. until OD600 was about 0.8. IPTG with the final concentration of 0.04 mmol/L was added for induction, and the induction was performed at 200 rpm at 25° C. for 14 h. The product was centrifuged at 6000 rpm for 8 min to collect bacterial cells. The bacterial cells collected by centrifugation were used for later transformation experiments.
# Transformation conditions: transformation temperature 25° C., reaction pH 8.0, and transformation time 24 h.
# The yield of α-ketoisovaleric acid of the transformation solution after the completion of the transformation was determined by HPLC. Finally, S98A produced α-ketoisovaleric acid at the highest yield.
# Sequence of Proteus mirabilis L-amino acid deaminase (PmirLAAD), wild-type parent, SEQ ID NO: 1 (Q51890 entry or part of it): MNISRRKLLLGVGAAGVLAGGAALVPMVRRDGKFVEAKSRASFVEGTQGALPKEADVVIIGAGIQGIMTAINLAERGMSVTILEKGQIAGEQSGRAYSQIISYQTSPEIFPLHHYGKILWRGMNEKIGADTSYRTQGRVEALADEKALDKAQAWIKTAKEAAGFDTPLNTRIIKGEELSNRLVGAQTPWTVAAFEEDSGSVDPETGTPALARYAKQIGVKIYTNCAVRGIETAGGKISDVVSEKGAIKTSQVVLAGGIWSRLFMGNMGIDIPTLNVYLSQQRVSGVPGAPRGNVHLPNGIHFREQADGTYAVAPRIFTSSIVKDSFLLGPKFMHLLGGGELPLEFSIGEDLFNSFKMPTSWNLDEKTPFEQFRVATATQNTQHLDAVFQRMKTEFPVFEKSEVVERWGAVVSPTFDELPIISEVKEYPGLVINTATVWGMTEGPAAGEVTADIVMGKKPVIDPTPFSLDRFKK
# Sequence of Proteus mirabilis L-amino acid deaminase (PmirLAAD) mutant M2, S98A/T105A, SEQ ID NO: 11 (Q51890 whole entry S98A/T105A): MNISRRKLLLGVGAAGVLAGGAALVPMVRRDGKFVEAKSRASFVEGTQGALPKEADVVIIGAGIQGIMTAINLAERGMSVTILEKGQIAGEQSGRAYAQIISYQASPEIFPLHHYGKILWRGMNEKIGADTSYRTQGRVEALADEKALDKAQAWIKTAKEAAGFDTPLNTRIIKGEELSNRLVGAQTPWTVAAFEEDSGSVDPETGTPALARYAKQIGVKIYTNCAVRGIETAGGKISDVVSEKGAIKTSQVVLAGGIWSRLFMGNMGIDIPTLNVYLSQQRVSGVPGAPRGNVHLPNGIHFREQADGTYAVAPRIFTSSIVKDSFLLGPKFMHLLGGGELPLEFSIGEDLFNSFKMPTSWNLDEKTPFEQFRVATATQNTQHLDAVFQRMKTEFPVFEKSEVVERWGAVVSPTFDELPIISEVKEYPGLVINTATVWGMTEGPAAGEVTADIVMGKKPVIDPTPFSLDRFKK
# Sequence of Proteus mirabilis L-amino acid deaminase (PmirLAAD) mutant M4, S98A/T105A/S106A/L341A, SEQ ID NO: 15 (Proteus mirabilis, UniProt Q51890, L341A/S106A/S98A/T105A) (Q51890 whole entry S98A/T105A/S106A/L341A): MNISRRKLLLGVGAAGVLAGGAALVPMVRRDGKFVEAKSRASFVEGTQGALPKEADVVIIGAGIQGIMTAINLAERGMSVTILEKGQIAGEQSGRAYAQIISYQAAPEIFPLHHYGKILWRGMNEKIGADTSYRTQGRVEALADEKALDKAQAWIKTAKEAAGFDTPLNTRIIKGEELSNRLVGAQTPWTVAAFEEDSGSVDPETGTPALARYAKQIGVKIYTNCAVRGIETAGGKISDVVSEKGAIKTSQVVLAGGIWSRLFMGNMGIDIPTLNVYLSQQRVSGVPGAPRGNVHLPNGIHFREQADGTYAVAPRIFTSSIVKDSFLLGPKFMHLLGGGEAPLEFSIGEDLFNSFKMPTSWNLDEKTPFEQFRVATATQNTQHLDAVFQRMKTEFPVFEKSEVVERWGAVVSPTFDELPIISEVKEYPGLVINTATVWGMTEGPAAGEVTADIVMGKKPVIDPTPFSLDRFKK
molecule,measurement,setting,value
CC(C)[C@H](N)C(=O)O [L-valine],increase of kcat/Km (catalytic efficiency),[1],5.2 times
"Proteus mirabilis L-amino acid deaminase (PmirLAAD), wild-type parent, SEQ ID NO: 1 (Proteus mirabilis)",kcat/Km,CC(C)[C@H](N)C(=O)O,4.33 M⁻¹ s⁻¹
CC(C)C(=O)C(=O)O [α-ketoisovaleric acid],Times of change (KPI),[2],2.6
same,Times of change (KPI),[3],1
same,Times of change (KPI),[4],4.6
same,Times of change (KPI),[5],3.9
same,increase of product inhibition constant,"[6]; M4 compared with parent enzyme, ""increased by""",5.7 times
same,Times of change (KPI),[6]; M4 relative to WT,6.7
B1,α-ketoisovaleric acid,[7],60.6 g/L
B2,α-ketoisovaleric acid,[7],59.6 g/L
B3,α-ketoisovaleric acid,[7],53.5 g/L
B4,α-ketoisovaleric acid,[7],56.1 g/L
